Data: ChEMBL document CHEMBL2406976, “Discovery of Inhibitors of Burkholderia pseudomallei Methionine Aminopeptidase with Antibacterial Activity” (ACS Med Chem Lett, 2013)
≈ marks a conversion by molar mass, not a printed value. Calls of active or inactive are those of the source. The calls are words filed in the database; no cut-off is given here.

Assays:
[1] = system: Burkholderia thailandensis; test: Antibacterial activity against Burkholderia thailandensis E264 assessed as bacterial growth inhibition at 1 mM after 24 hrs by two-fold dilution method relative to DMSO-treated control; assay type: functional; conditions: for inhibition of growth at 1000 µM: E264, 24 h, read-out: GI
[2] = Inhibition of Burkholderia pseudomallei recombinant methionine aminopeptidase 1 using H-Met-Gly-Pro-7-amino-4-methylcoumarin hydrochloride as substrate measured for 10 mins by fluorescence assay in presence of human recombinant DPP4
[3] = system: Burkholderia thailandensis; test: Bactericidal activity against Burkholderia thailandensis E264 assessed as cell death at 1 mM after 24 hrs by two-fold dilution method; assay type: functional
[4] = system: Burkholderia thailandensis; test: Antibacterial activity against Burkholderia thailandensis E264 assessed as bacterial growth inhibition after 24 hrs by two-fold dilution method; assay type: functional; conditions: E264, 24 h
[5] = biological target: Methionine aminopeptidase 1 (Homo sapiens, UniProt P53582); test: Inhibition of human methionine aminopeptidase 1
[6] = system: Burkholderia thailandensis; test: Antibacterial activity against Burkholderia thailandensis E264 assessed as bacterial growth inhibition at 0.5 mM after 24 hrs by two-fold dilution method relative to control; assay type: functional
[7] = biological target: Methionine aminopeptidase 2 (Homo sapiens, UniProt P50579); test: Inhibition of human methionine aminopeptidase 2
[8] = system: Burkholderia pseudomallei; test: Antibacterial activity against Burkholderia pseudomallei assessed as bacterial growth inhibition; assay type: functional
[9] = system: Burkholderia pseudomallei; test: Antibacterial activity against Burkholderia pseudomallei 1026b assessed as bacterial growth inhibition after 24 hrs by two-fold dilution method; assay type: functional, organism-based
[10] = system: Burkholderia pseudomallei; test: Antibacterial activity against Burkholderia pseudomallei Bp340 assessed as bacterial growth inhibition at 31.25 uM after 24 hrs by two-fold dilution method; assay type: functional, organism-based
[11] = system: Burkholderia thailandensis; test: Bactericidal activity against Burkholderia thailandensis E264 assessed as cell death after 24 hrs by two-fold dilution method; assay type: functional; conditions: E264, 24 h

Methionine aminopeptidase 2, sequence (P50579 whole entry): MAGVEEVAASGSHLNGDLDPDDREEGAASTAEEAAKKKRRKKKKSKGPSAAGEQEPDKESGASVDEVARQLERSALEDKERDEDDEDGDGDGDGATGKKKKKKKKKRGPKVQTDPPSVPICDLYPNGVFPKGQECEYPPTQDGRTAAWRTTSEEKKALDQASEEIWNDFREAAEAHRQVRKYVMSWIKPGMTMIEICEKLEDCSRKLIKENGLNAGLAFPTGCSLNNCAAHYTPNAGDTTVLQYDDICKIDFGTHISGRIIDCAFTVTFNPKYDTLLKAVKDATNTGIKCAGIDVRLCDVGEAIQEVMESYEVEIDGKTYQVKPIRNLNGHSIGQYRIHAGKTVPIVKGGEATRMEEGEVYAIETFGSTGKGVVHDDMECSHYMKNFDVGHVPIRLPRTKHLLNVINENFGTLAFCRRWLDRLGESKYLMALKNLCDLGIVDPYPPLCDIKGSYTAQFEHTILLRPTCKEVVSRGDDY

Compound: Oc1c(CN2CCSCC2)cc(Cl)c2cccnc12
- inhibition of growth at 1000 µM [1]: > 50%

Compound: CC(C)(C)c1ccc(CSc2nnc(N)[nH]2)cc1
- IC50 [2]: > 250 µM
- inhibition of growth at 1000 µM [1]: ≤ 26%

Compound: O=[N+]([O-])c1cc(CN2CCOCC2)c(O)c2ncccc12
- IC50 [2]: 60 µM

Compound: O=[N+]([O-])c1cc(CN2CCCC2)c(O)c2ncccc12
- IC50 [2]: 0.03 µM
- growth inhibition (GI) [1]: Active

Compound: Oc1ccc(Cl)c2cccnc12 [CLOXYQUIN]
- inhibition of growth at 1000 µM [1]: > 50%

Compound: Nc1nnc(SCc2ccc(F)cc2)[nH]1
- IC50 [2]: 7 µM
- inhibition of growth at 1000 µM [1]: ≤ 26%

Compound: Nc1nnc(SCc2ccc(F)c(F)c2)[nH]1
- IC50 [2]: > 250 µM
- inhibition of growth at 1000 µM [1]: ≤ 26%

Compound: CN1CCN(Cc2cc([N+](=O)[O-])c3cccnc3c2O)CC1
- IC50 [2]: 0.07 µM
- growth inhibition (GI) [1]: Active
- growth inhibition (GI) [3]: inactive
- MIC [4]: 500 µM (≈ 151 µg/mL)

Compound: CC(C)c1ccc(CSc2nnc(N)[nH]2)cc1
- IC50 [2]: > 250 µM
- inhibition of growth at 1000 µM [1]: ≤ 26%

Compound: Oc1cccc2cccnc12 [OXYQUINOLINE]
- IC50 [5]: > 15 µM
- inhibition of growth at 1000 µM [1]: > 50%

Compound: CN(C)Cc1cc([N+](=O)[O-])c2cccnc2c1O
- IC50 [2]: 0.04 µM
- growth inhibition (GI) [1]: Active

Compound: NC[C@H]1O[C@H](O[C@H]2[C@H](O)[C@@H](O[C@H]3O[C@H](CO)[C@@H](O)[C@H](N)[C@H]3O)[C@H](N)C[C@@H]2N)[C@H](O)[C@@H](O)[C@@H]1O
- inhibition [6]: Active

Compound: Cc1ccc2cccc(O)c2n1 [8-HYDROXY QUINALDINE]
- IC50 [7]: > 15 µM
- IC50 [5]: > 15 µM
- inhibition of growth at 1000 µM [1]: > 50%

Compound: O=S(=O)(O)c1ccc(O)c2ncccc12
- IC50 [7]: > 15 µM
- inhibition of growth at 1000 µM [1]: 9%

Compound: CN1CCN(Cc2cc(Cl)c3cccnc3c2O)CC1
- inhibition of growth at 1000 µM [1]: > 50%

Compound: Nc1nnc(SCc2ccc(Cl)cc2Cl)[nH]1
- IC50 [2]: 1 µM
- inhibition of growth at 1000 µM [1]: ≤ 26%

Compound: Oc1c(CN2CCCCC2)cc(Cl)c2cccnc12
- IC50 [5]: > 50 µM
- inhibition of growth at 1000 µM [1]: > 50%

Compound: Oc1c(CN2CCOCC2)cc(Cl)c2cccnc12
- inhibition of growth at 1000 µM [1]: > 50%

Compound: O=[N+]([O-])c1cc(CN2CCSCC2)c(O)c2ncccc12
- IC50 [2]: > 250 µM

Compound: Cc1ccc(CSc2nnc(N)[nH]2)cc1
- IC50 [2]: 3.1 µM
- inhibition of growth at 1000 µM [1]: ≤ 26%

Compound: CC(C)(O/N=C(\C(=O)N[C@@H]1C(=O)N2C(C(=O)[O-])=C(C[n+]3ccccc3)CS[C@H]12)c1csc(N)n1)C(=O)O [CEFTAZIDIME]
- MIC [8]: 1 µg/mL (≈ 1.83 µM)

Compound: O=[N+]([O-])c1ccc(O)c2ncccc12 [NITROXOLINE]
- growth inhibition (GI) [9]: Active
- growth inhibition (GI) [10]: Active
- growth inhibition (GI) [1]: Active
- MBC [11]: 250 µM (≈ 47.5 µg/mL)
- MIC [4]: 31 µM (≈ 5.89 µg/mL)
